Consider 35 molecules from patent publication US9458141B2, “Low molecular weight thyroid stimulating hormone receptor (TSHR) agonists” (The United States of America, as represented by the …, priority 2008, dated 2016).

The assay deals with T1, human TSHR (Homo sapiens, UniProt P16473).
T1 construct: expressed in transfected cells
Kind of assay: Homogeneous Time Resolved Fluorescence (HTRF) cAMP assay, TSHR cell line. The conditions noted are these: for Maximum Activity compared to TSH: 100% activity = response of 30 mU/ml TSH, 0% = DMSO control, in %; for AC50: TSHR cell line, 30 minute incubation; for Emax: read-out: Maximum Activity compared to TSH, 100% activity = response of 30 mU/ml TSH, 0% = DMSO control. In kind it is cell-based. An excerpt:
Generation of Stable Cell-Lines Expressing TSHR, LHCGR or FSHR.
cDNA for human TSHR was amplified by PCR from hTSHR-pSVL (1) and inserted into the pcDNA3.1(−)/hygromycin vector using restriction sites XhoI and BamHI. cDNA for human LHCGR was amplified by PCR from hLHR-pGS5 (2) and was inserted into the pcDNA3.1(+)/hygromycin vector using restriction sites BamHI and XhoI. The FSHR cDNA in pcDNA3.1 was obtained from the Missouri S&T cDNA Resource Center (www.cDNA.org) and was subcloned into the pcDNA3.1(−)/hygromycin vector. Constructs were confirmed by sequencing (MWG Biotech). HEK-EM 293 cells were transfected with the cDNA of TSHR, LHCGR or FSHR using FuGENE 6 Transfection reagent (Roche Diagnostics) according to the manufacturer's protocol. Two days after transfection cells were passaged and grown in Dulbecco's modified Eagle's Medium (DMEM) supplemented with 10% fetal bovine serum, 100 units/ml penicillin and 10 μg/ml streptomycin (Life Technologies Inc.) and with hygromycin (250 μg/ml) as a selection marker. After 7 to 10 days hygromycin-resistant clones were selected, and after a few days of further growth submitted for a cAMP assay to identify clones that stably express the appropriate receptor. Cell Culture. Cells stably expressing TSHR, LHCGR or FSHR and parental HEK 293 cells were maintained in DMEM medium containing 10% FBS, 100 units/ml Penicillin, 100 μg/ml Streptomycin, at 37° C. in 5% CO2. For the cells lines stably expressing TSHR, LHCGR or FSHR, additional 250 μg/ml Hygromycin was added during the cell culture. The cells were seeded at a density of 3 to 4 million cells in a T175 flask containing 35 ml of media and were allowed to grow for 3 days to reach 80-90% confluence. A flask of HEK 293 cells at this density generally yielded 30 million cells total. Homogeneous Time Resolved Fluorescence (HTRF) cAMP Assay. Compounds were assayed using a HTRF cAMP detection kit (Cisbio, Bedford, Mass.) on both TSHR cell line and parental cell line. Briefly, 750 cells were plated in 2.5 μl/well of complete media (DMEM containing 10% FCS) in 1536 well solid bottom white plates and 20 nl/well compound in DMSO solution or controls was added. Following 30 minute incubation at room temperature, 2.5 μl/well of labeled d2 cAMP and 2.5 μl/well of anti-cAMP antibody (both diluted 1:20 in lysis buffer) were added to each well using a flying reagent dispenser (Aurora Discovery, San Diego). Plates were measured using the Envision plate reader (PerkinElmer, Boston, Mass.) with excitation at 330 nm and emissions of 615 nm and 660 nm. Compound Preparation. […] Data Analysis. […] The EC50 values of compounds were calculated from the concentration-response curves by nonlinear regression analysis using Prism software (GraphPad Software, San Diego, Calif.). Confirmatory cAMP Assay and Test for Selectivity Towards TSHR 50,000 cells/well were plated in complete media (DMEM containing 10% FCS) in 96 well plates. […] Following aspiration of the medium after incubation with compounds, cells were lysed using lysis buffer of the cAMP-Screen Direct™ System (Applied Biosystems, Cat # CSD200). The cAMP content of the cell lysate was determined using the manufacturer's protocol. […] Below is a List of Compounds that were Assayed via the Homogeneous Time Resolved Fluorescence (HTRF) cAMP Assay.

SMILES strings stand for the structures. Read-outs that look alike come from different tables or passages of the source.

T1 sequence (P16473 21-764): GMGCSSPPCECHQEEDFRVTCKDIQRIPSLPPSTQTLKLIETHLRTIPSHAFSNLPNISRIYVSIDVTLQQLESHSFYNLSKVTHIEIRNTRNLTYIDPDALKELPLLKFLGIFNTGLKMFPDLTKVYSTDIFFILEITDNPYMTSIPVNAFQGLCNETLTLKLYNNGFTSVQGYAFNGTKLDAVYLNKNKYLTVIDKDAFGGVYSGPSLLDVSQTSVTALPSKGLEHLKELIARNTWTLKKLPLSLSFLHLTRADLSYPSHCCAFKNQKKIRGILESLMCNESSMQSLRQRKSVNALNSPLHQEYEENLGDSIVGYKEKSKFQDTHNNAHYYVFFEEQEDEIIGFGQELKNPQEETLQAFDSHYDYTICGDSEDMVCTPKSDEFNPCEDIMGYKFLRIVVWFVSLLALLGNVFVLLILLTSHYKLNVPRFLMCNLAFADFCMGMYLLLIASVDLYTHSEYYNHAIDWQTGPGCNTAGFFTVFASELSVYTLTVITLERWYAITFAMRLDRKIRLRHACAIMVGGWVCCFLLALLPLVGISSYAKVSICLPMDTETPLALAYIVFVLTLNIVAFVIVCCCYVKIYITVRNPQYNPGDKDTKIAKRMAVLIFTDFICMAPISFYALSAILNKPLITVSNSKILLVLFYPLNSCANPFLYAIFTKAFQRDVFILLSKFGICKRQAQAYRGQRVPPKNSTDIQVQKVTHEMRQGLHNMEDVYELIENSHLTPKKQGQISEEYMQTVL

On to `COc1ccc(C2Nc3ccccc3C(=O)N2Cc2ccccc2)cc1COc1ccc(NC(C)=O)cc1` (single isomer, unassigned) [Structure 2], for which the “Maximum Activity compared to TSH” value turned out to be 217.29. Moreover, under “AC50, HTRF cAMP”, half-maximal activity (AC50) was put at 11.2 µM.
With `COc1ccc(C2Nc3ccccc3C(=O)N2Cc2ccccc2)cc1COc1ccc(NC(C)=O)cc1` (single isomer, unassigned) [Structure 4], the “Maximum Activity compared to TSH” value was 171.91. Moreover, the activity (AC50, HTRF cAMP) was half-maximal at 7.08 µM (AC50).
In the same order, the values of `COc1ccc(C2Nc3ccccc3C(=O)N2Cc2ccccc2)cc1COc1ccc(NC(C)=O)cc1` (single isomer, unassigned) [Structure 7] are 152.47 and 8.91 µM.
As to `COc1ccc(C2Nc3ccccc3C(=O)N2Cc2ccccc2)cc1COc1ccc(NC(C)=O)cc1` (single isomer, unassigned) [Structure 24], the “Maximum Activity compared to TSH” value stood at 159.76. This molecule also came in with an AC50 (AC50, HTRF cAMP) of 7.08 µM.
On the same counts, the results for `COc1ccc(C2Nc3ccccc3C(=O)N2Cc2ccccc2)cc1COc1ccc(NC(C)=O)cc1` (single isomer, unassigned) [Structure 25] are 207.56 and 8.91 µM.
In the same order, the values of `COc1ccc(C2Nc3ccccc3C(=O)N2Cc2ccccc2)cc1COc1ccc(NC(C)=O)cc1` (single isomer, unassigned) [Structure 26] are 217.05 and 10 µM.
As for `COc1ccc(C2Nc3ccccc3C(=O)N2Cc2ccccc2)cc1COc1ccc(NC(C)=O)cc1` (single isomer, unassigned) [Structure 37], the “Maximum Activity compared to TSH” value worked out at 104.22. Where the note is “AC50, HTRF cAMP”, this molecule returned an AC50 of 8.91 µM.
In the same order, the values of `COc1ccc(C2Nc3ccccc3C(=O)N2Cc2ccccc2)cc1COc1ccc(NC(C)=O)cc1` (single isomer, unassigned) [Structure 49] are 134.24 and 3.55 µM.
On the same counts, the results for `COc1ccc(C2Nc3ccccc3C(=O)N2Cc2ccccc2)cc1COc1ccc(NC(C)=O)cc1` (single isomer, unassigned) [Structure 51] are 174.87 and 15.8 µM.
In the same order, the values of `COc1ccc(C2Nc3ccccc3C(=O)N2Cc2ccccc2)cc1COc1ccc(NC(C)=O)cc1` (single isomer, unassigned) [Structure 55] are 194.91 and 7.94 µM.
Regarding `COc1ccc(C2Nc3ccccc3C(=O)N2Cc2ccccc2)cc1COc1ccc(NC(C)=O)cc1` (single isomer, unassigned) [Structure 56], the “Maximum Activity compared to TSH” value is recorded as 110.90. The AC50 (AC50, HTRF cAMP) came to 11.2 µM.
In the same order, the values of `COc1ccc(C2Nc3ccccc3C(=O)N2Cc2ccccc2)cc1COc1ccc(NC(C)=O)cc1` (single isomer, unassigned) [Structure 62] are 241.92 and 7.08 µM.
Take `COc1ccc(C2Nc3ccccc3C(=O)N2Cc2ccccc2)cc1COc1ccc(NC(C)=O)cc1` (single isomer, unassigned) [Structure 63]: the “Maximum Activity compared to TSH” value was 166.46. Besides, the AC50 (AC50, HTRF cAMP) turned out to be 5.01 µM.
On to `COc1ccc(C2Nc3ccccc3C(=O)N2Cc2ccco2)cc1COc1ccc(NC(C)=O)cc1` (stereo not shown) [Structure 1], for which the “Maximum Activity compared to TSH” value is given as 159.24. In addition, where the note is “HTRF cAMP, read-out: AC50”, the AC50 came out at 12.6 µM.
On the same counts, the results for `COc1ccc(CN2C(=O)c3ccccc3NC2c2ccc(OC)c(COc3ccc(NC(C)=O)cc3)c2)cc1` (stereo not shown) [Structure 3] are 93.95 and 4.47 µM.
Turning to `COc1ccc(CN(Cc2ccccc2)C(=O)c2ccccc2)cc1COc1ccc(NC(C)=O)cc1` [Structure 5], the “Maximum Activity compared to TSH” value is on record as 174.77. Besides, the AC50 (HTRF cAMP, read-out: AC50) stood at 15.8 µM.
Consider `COc1ccc(C2Nc3ccccc3C(=O)N2Cc2ccco2)cc1COc1ccc(NC(C)=O)cc1` (stereo not shown) [Structure 6], for which the “Maximum Activity compared to TSH” value is recorded as 180.81. The AC50 (HTRF cAMP, read-out: AC50) amounted to 17.8 µM.
Consider `COc1ccc(C2Nc3ccccc3C(=O)N2Cc2ccco2)cc1COc1ccc(NC(C)=O)cc1` (stereo not shown) [Structure 8], for which the “Maximum Activity compared to TSH” value turned out to be 115.96. In addition, the AC50 (HTRF cAMP, read-out: AC50) was 14.1 µM.
On the same counts, the results for `COc1ccc(C2Nc3ccccc3C(=O)N2Cc2ccco2)cc1COc1ccc(NC(C)=O)cc1` (stereo not shown) [Structure 9] are 115.62 and 17.8 µM.
As to `COc1ccc(C2Nc3ccc(NC(C)=O)cc3C(=O)N2Cc2cccc(Cl)c2)cc1COc1ccc(NC(C)=O)cc1` (stereo not shown) [Structure 10], the Emax turned out to be 122%. In addition, the AC50 (HTRF cAMP, read-out: AC50) came to 7.94 µM.
On to `COc1ccc(C2Nc3ccccc3C(=O)N2Cc2cccc(Cl)c2)cc1COc1ccc(NC(C)=O)cc1` (stereo not shown) [Structure 11], for which the “Maximum Activity compared to TSH” value amounted to 113.94. In addition, the AC50 (HTRF cAMP, read-out: AC50) was determined as 3.16 µM.
On the same counts, the results for `COc1ccc(C2Nc3ccccc3C(=O)N2Cc2cccc(Cl)c2)cc1COc1ccc(NC(C)=O)cc1` (stereo not shown) [Structure 12] are 91.43 and 3.98 µM.
On to `COc1ccc(C2Nc3ccccc3C(=O)N2Cc2cccc(-c3ccccc3)c2)cc1COc1ccc(NC(C)=O)cc1` (stereo not shown) [Structure 13], for which the “Maximum Activity compared to TSH” value came to 103.29. For the same molecule, the AC50 (HTRF cAMP, read-out: AC50) turned out to be 2.24 µM.
On the same counts, the results for `COc1ccc(C2Nc3ccccc3C(=O)N2Cc2ccco2)cc1COc1ccc(NC(C)=O)cc1` (stereo not shown) [Structure 14] are 104.66 and 11.2 µM.
Regarding `COc1ccc(C(=O)N(Cc2ccccc2)Cc2ccc(OC)c(COc3ccc(NC(C)=O)cc3)c2)cc1` [Structure 15], the Emax was 123%. Moreover, the AC50 (HTRF cAMP, read-out: AC50) was determined as 12.6 µM.
For `CCCCN1C(=O)c2ccccc2NC1c1ccc(OC)c(COc2ccc(NC(C)=O)cc2)c1` (stereo not shown) [Structure 16], the “Maximum Activity compared to TSH” value stood at 97.95. The AC50 (HTRF cAMP, read-out: AC50) was 20 µM.
On the same counts, the results for `COc1ccc(-c2nc3ccccc3c(=O)n2Cc2ccccc2)cc1COc1ccc(NC(C)=O)cc1` [Structure 17] are 93.46 and 10 µM.
In the same order, the values of `COc1cccc(CN2C(=O)c3ccccc3NC2c2ccc(OC)c(COc3ccc(NC(C)=O)cc3)c2)c1` (stereo not shown) [Structure 18] are 215.89 and 6.31 µM.
On the same counts, the results for `COc1ccc(C2Nc3ccccc3C(=O)N2Cc2ccco2)cc1COc1ccc(NC(C)=O)cc1` (stereo not shown) [Structure 19] are 142.18 and 15.8 µM.
For the molecule `COc1ccc(C2Nc3ccccc3C(=O)N2Cc2ccco2)cc1COc1ccc(NC(C)=O)cc1` (stereo not shown) [Structure 20], the “Maximum Activity compared to TSH” value is 156.28. Also, where the note is “HTRF cAMP, read-out: AC50”, the AC50 amounted to 14.1 µM.
On the same counts, the results for `COc1ccc(CN(Cc2ccccc2)C(=O)c2ccccc2N)cc1COc1ccc(NC(C)=O)cc1` [Structure 21] are 236.35 and 25.1 µM.
In the same order, the values of `COc1ccc(C2Nc3ccccc3C(=O)N2Cc2ccccc2)cc1CSc1ccc(NC(C)=O)cc1` (stereo not shown) [Structure 22] are 463.89 and 7.94 µM.
In the same order, the values of `COc1ccc(C2Nc3ccccc3C(=O)N2Cc2ccco2)cc1COc1ccc(NC(C)=O)cc1` (stereo not shown) [Structure 23] are 165.50 and 15.8 µM.
With `COc1ccc(C2Nc3ccccc3C(=O)N2Cc2cccc(C(F)(F)F)c2)cc1COc1ccc(NC(C)=O)cc1` (stereo not shown) [Structure 27], the “Maximum Activity compared to TSH” value is reported as 123.52. Further, where the note is “HTRF cAMP, read-out: AC50”, the AC50 came out at 4.47 µM.
As for `COc1ccc(C2Nc3cccc(O)c3C(=O)N2Cc2ccccc2)cc1COc1ccc(NC(C)=O)cc1` (stereo not shown) [Structure 28], the “Maximum Activity compared to TSH” value is recorded as 405.10. The AC50 (HTRF cAMP, read-out: AC50) worked out at 10 µM.
